Key:
Test in all cases: Test D controlled growth environment herbicide test, pre- and postemergence
Format in all cases: in vivo
[1] = system: chickweed (common chickweed, Stellaria media)
How it was run: (§1)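 Rating is visual, 0–100 scale (100 = complete control), made against untreated plants 14–21 d after treatment in controlled growth conditions. Postemergence sprays went onto 1- to 4-leaf plants in peat medium; preemergence sprays onto silt loam after sowing; formulation included a surfactant.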

[2] = system: ryegrass, Italian (Italian ryegrass, Lolium multiflorum)
How it was run: as §1

[3] = system: Russian thistle (Salsola kali)
How it was run: as §1

[4] = system: bromegrass, downy (downy bromegrass, Bromus tectorum)
How it was run: as §1

[5] = system: lambsquarters (Chenopodium album)
How it was run: as §1

[6] = system: blackgrass (Alopecurus myosuroides)
How it was run: as §1

[7] = system: wheat, winter (winter wheat, Triticum aestivum)
How it was run: as §1

[8] = system: radish, wild (wild radish, Raphanus raphanistrum)
How it was run: as §1

[9] = system: deadnettle (henbit deadnettle, Lamium amplexicaule)
How it was run: as §1

[10] = system: chamomile (scentless chamomile, Matricaria inodora)
How it was run: as §1

[11] = system: windgrass (Apera spica-venti)
How it was run: as §1

[12] = system: speedwell (bird's-eye speedwell, Veronica persica)
How it was run: as §1

[13] = system: field violet (Viola arvensis)
How it was run: as §1

[14] = system: kochia (Kochia scoparia)
How it was run: as §1

[15] = Postemergence, 31 g ai/ha, scale 0 to 100 (0 no effect, 100 complete control)
[16] = Postemergence, 125 g ai/ha, visual rating on scale 0 (no effect) to 100 (complete control), 14 to 21 d
[17] = Postemergence, 250 g ai/ha, scale 0 to 100 (0 no effect, 100 complete control)
[18] = Preemergence, 62 g ai/ha, scale 0 to 100 (0 no effect, 100 complete control)
[19] = Preemergence, 125 g ai/ha, scale 0 to 100 (0 no effect, 100 complete control)
[20] = Preemergence, 250 g ai/ha, scale 0 to 100, 0 no effect, 100 complete control
[21] = postemergence, 62 g ai/ha, scale 0 to 100, 0 no effect, 100 complete control

## Cc1ccc2sc(Br)c(-c3c(O)c(C)nn(C)c3=O)c2c1 [Compound 79]
[1]; [15]
  Chickweed plant response rating: 95
[1]; [16]
  Plant response rating, Chickweed: 100
[1]; [17]
  Plant response rating, Chickweed: 100
[1]; Preemergence, 31 g ai/ha
  Plant response rating (scale of 0 to 100), Chickweed: 100
[1]; [18]
  Plant response rating, Chickweed: 100
[1]; [19]
  Plant response rating, Chickweed: 100
[1]; [20]
  Plant response rating, Chickweed: 100
[1]; [21]
  Plant response rating, Chickweed: 95
[2]; [15]
  Ryegrass, Italian plant response rating: 70
[2]; [16]
  Plant response rating, Ryegrass, Italian: 85
[2]; [17]
  Plant response rating, Ryegrass, Italian: 90
[2]; Preemergence, 31 g ai/ha
  Plant response rating (scale of 0 to 100), Ryegrass, Italian: 80
[2]; [18]
  Plant response rating, Ryegrass, Italian: 85
[2]; [19]
  Plant response rating, Ryegrass, Italian: 90
[2]; [20]
  Plant response rating, Ryegrass, Italian: 100
[2]; [21]
  Plant response rating, Ryegrass, Italian: 75
[3]; [15]
  Russian Thistle plant response rating: 50
[3]; [16]
  Plant response rating, Russian Thistle: 55
[3]; [17]
  Plant response rating, Russian Thistle: 65
[3]; Preemergence, 31 g ai/ha
  Plant response rating (scale of 0 to 100), Russian Thistle: 0
[3]; [18]
  Plant response rating, Russian Thistle: 70
[3]; [19]
  Plant response rating, Russian Thistle: 75
[3]; [20]
  Plant response rating, Russian Thistle: 100
[3]; [21]
  Plant response rating, Russian Thistle: 55
[4]; [15]
  Bromegrass, Downy plant response rating: 5
[4]; [16]
  Plant response rating, Bromegrass, Downy: 10
[4]; [17]
  Plant response rating, Bromegrass, Downy: 20
[4]; Preemergence, 31 g ai/ha
  Plant response rating (scale of 0 to 100), Bromegrass, Downy: 35
[4]; [18]
  Plant response rating, Bromegrass, Downy: 35
[4]; [19]
  Plant response rating, Bromegrass, Downy: 50
[4]; [20]
  Plant response rating, Bromegrass, Downy: 60
[4]; [21]
  Plant response rating, Bromegrass, Downy: 5
[5]; [15]
  Lambsquarters plant response rating: 85
[5]; [16]
  Plant response rating, Lambsquarters: 90
[5]; [17]
  Plant response rating, Lambsquarters: 100
[5]; Preemergence, 31 g ai/ha
  Plant response rating (scale of 0 to 100), Lambsquarters: 100
[5]; [18]
  Plant response rating, Lambsquarters: 100
[5]; [19]
  Plant response rating, Lambsquarters: 100
[5]; [20]
  Plant response rating, Lambsquarters: 100
[5]; [21]
  Plant response rating, Lambsquarters: 80
[6]; [15]
  Blackgrass plant response rating: 10
[6]; [16]
  Plant response rating, Blackgrass: 40
[6]; [17]
  Plant response rating, Blackgrass: 50
[6]; Preemergence, 31 g ai/ha
  Plant response rating (scale of 0 to 100), Blackgrass: 20
[6]; [18]
  Plant response rating, Blackgrass: 45
[6]; [19]
  Plant response rating, Blackgrass: 55
[6]; [20]
  Plant response rating, Blackgrass: 60
[6]; [21]
  Plant response rating, Blackgrass: 20
[7]; [15]
  Wheat, Winter plant response rating: 0
[7]; [16]
  Plant response rating, Wheat, Winter: 0
[7]; [17]
  Plant response rating, Wheat, Winter: 0
[7]; Preemergence, 31 g ai/ha
  Plant response rating (scale of 0 to 100), Wheat, Winter: 0
[7]; [18]
  Plant response rating, Wheat, Winter: 0
[7]; [19]
  Plant response rating, Wheat, Winter: 0
[7]; [20]
  Plant response rating, Wheat, Winter: 0
[7]; [21]
  Plant response rating, Wheat, Winter: 0
[8]; [15]
  Radish, Wild plant response rating: 0
[8]; [16]
  Plant response rating, Radish, Wild: 0
[8]; [17]
  Plant response rating, Radish, Wild: 65
[8]; Preemergence, 31 g ai/ha
  Plant response rating (scale of 0 to 100), Radish, Wild: 25
[8]; [18]
  Plant response rating, Radish, Wild: 25
[8]; [19]
  Plant response rating, Radish, Wild: 45
[8]; [20]
  Plant response rating, Radish, Wild: 55
[8]; [21]
  Plant response rating, Radish, Wild: 0
[9]; [15]
  Deadnettle plant response rating: 5
[9]; [16]
  Plant response rating, Deadnettle: 20
[9]; [17]
  Plant response rating, Deadnettle: 40
[9]; Preemergence, 31 g ai/ha
  Plant response rating (scale of 0 to 100), Deadnettle: 0
[9]; [18]
  Plant response rating, Deadnettle: 10
[9]; [19]
  Plant response rating, Deadnettle: 100
[9]; [20]
  Plant response rating, Deadnettle: 90
[9]; [21]
  Plant response rating, Deadnettle: 15
[10]; [15]
  Chamomile plant response rating: 85
[10]; [16]
  Plant response rating, Chamomile: 100
[10]; [17]
  Plant response rating, Chamomile: 100
[10]; [21]
  Plant response rating, Chamomile: 95
[11]; [15]
  Windgrass plant response rating: 15
[11]; [16]
  Plant response rating, Windgrass: 35
[11]; [17]
  Plant response rating, Windgrass: 65
[11]; Preemergence, 31 g ai/ha
  Plant response rating (scale of 0 to 100), Windgrass: 25
[11]; [18]
  Plant response rating, Windgrass: 40
[11]; [19]
  Plant response rating, Windgrass: 50
[11]; [20]
  Plant response rating, Windgrass: 80
[11]; [21]
  Plant response rating, Windgrass: 20
[12]; [15]
  Speedwell plant response rating: 25
[12]; [16]
  Plant response rating, Speedwell: 35
[12]; [17]
  Plant response rating, Speedwell: 65
[12]; [21]
  Plant response rating, Speedwell: 30
[13]; [15]
  Field Violet plant response rating: 75
[13]; [16]
  Plant response rating, Field Violet: 85
[13]; [17]
  Plant response rating, Field Violet: 95
[13]; Preemergence, 31 g ai/ha
  Plant response rating (scale of 0 to 100), Field Violet: 80
[13]; [18]
  Plant response rating, Field Violet: 85
[13]; [19]
  Plant response rating, Field Violet: 98
[13]; [20]
  Plant response rating, Field Violet: 100
[13]; [21]
  Plant response rating, Field Violet: 75
[14]; [15]
  Kochia plant response rating: 70
[14]; [16]
  Plant response rating, Kochia: 85
[14]; [17]
  Plant response rating, Kochia: 95
[14]; Preemergence, 31 g ai/ha
  Plant response rating (scale of 0 to 100), Kochia: 60
[14]; [18]
  Plant response rating, Kochia: 55
[14]; [19]
  Plant response rating, Kochia: 100
[14]; [20]
  Plant response rating, Kochia: 95
[14]; [21]
  Plant response rating, Kochia: 80

Reference: patent US10597388B2, “Pyridazinone herbicides” (FMC CORPORATION, priority 2014, dated 2020)
